Counter-ions that a name gives are not always drawn.
Tests used:
Assay type in all cases: in vivo
[1] = test system: 5-month-old male Wistar rats; experiment: Object recognition task after scopolamine treatment; settings: previous study; for effect on object memory deficit induced by scopolamine: scopolamine 0.1 mg/kg i.p.
[2] = test system: 5-month-old male Wistar rats; experiment: as above; settings: for d2 difference from zero (one-sample t-tests) / effect on scopolamine-induced object memory dysfunction (comparison with scopolamine alone): present study; for d2 difference from zero (one-sample t-tests) / effect on scopolamine-induced object memory dysfunction (comparison with scopolamine alone) / Mean values (±SEM) of the indices of discrimination (d2) between the new and familiar objects: EVP-6124 0.03 mg/kg p.o., donepezil 0.1 mg/kg p.o., scopolamine 0.1 mg/kg i.p., 1 h delay; for Mean values (±SEM) of the indices of discrimination (d2) between the new and familiar objects: all 30 min before T1, n = 23
Source text: The object recognition task allows the assessment of consolidation of (object) information into memory (Ennaceur and Delacour, 1988; Prickaerts et al., 1997). In this task a rat is given two trials. In the first trial the rat is put into an arena in which two identical objects are placed. Usually, a rate will inspect the two objects for a certain amount of time. After a certain delay, the rat is given a second trial. In this trial the rat is again placed in the same arena but one of the objects has been replaced by a novel object. Similar to the first trial the rat again explores the two objects. The amount of time exploring each object is recorded in order to determine whether the rat spent a different amount of time exploring the two objects. On basis of this scoring the memory performance can be determined.
All drugs were given 30 minutes before the first trial.
All experimental procedures were approved by the local ethical committee of the Maastricht University for animal experiments and met governmental guidelines. Twenty-four 5-month-old male Wistar rats (Harlan, The Netherlands) were used (average body weights: 465 g). […] The animals were individually housed in standard type 3 Makrolon cages on sawdust bedding in an air-conditioned room (about 20° C.). They were kept under a 12/12-hour light/dark cycle (lights on from 19.00 to 7.00 h) and had free access to food and water. Rats were housed in the same room as where the animals were tested. A radio, which was playing softly, provided background noise in the room. All testing was done between 9.00 and maximally 18.00 h.
EVP-6124 was dissolved in H2O. The solution was prepared daily and tested at a dose of 0.03 mg/kg p.o. (injection volume 2 ml/kg). […] Donepezil was dissolved in saline. The solution was prepared daily and tested at a dose of 0.1 mg/kg p.o. (injection volume 2 ml/kg). Administration was always 30 min before trial 1 immediately after (R)-7-chloro-N-(quinuclidin-3-yl)benzo[b]thiophene-2-carboxamide.
Subsequently donepezil, (R)-7-chloro-N-(quinuclidin-3-yl)benzo[b]thiophene-2-carboxamide and the combination of both were tested (n=8 per condition per day of testing). All rats were treated once with each dose condition. […] The experimentator was unaware of the condition/drugs being tested.
The object recognition test was performed as described elsewhere (Ennaceur and Delacour, 1988). The apparatus consisted of a circular arena, 83 cm in diameter. Half of the 40 cm high wall was made of gray polyvinyl chloride, the other half of transparent polyvinyl chloride. The light intensity was equal in the different parts of the apparatus. Two objects were placed in a symmetrical position about 10 cm away from the gray wall. Each object was available in triplicate. The objects were: 1) a cone consisting of a gray polyvinyl chloride base (maximal diameter 18 cm) with a collar on top made of brass (total height 16 cm), 2) a standard 1 l brown transparent glass bottle (diameter 10 cm, height 22 cm) filled with water, 3) a massive metal cube (10.0×5.0×7.5 cm) with two holes (diameter 1.9 cm), and 4) a massive aluminum cube with a tapering top (13.0×8.0×8.0 cm). A rat could not displace the objects. Fluorescent red tubes and a light bulb provided a constant illumination of about 20 lux on the floor of the apparatus.
A testing session comprised two trials. The duration of each trial was 3 min. During the first trial (T1) the apparatus contained two identical objects (samples). A rat was always placed in the apparatus facing the wall at the middle of the front (transparent) segment. After the first exploration period the rat was put back in its home cage.

[3] = test system: mild to moderate AD patients; settings: 0.3 or 1.0 mg/d for 28 days, in addition to donepezil or rivastigmine; domains of non-verbal learning, memory, executive function
Method: The safety and efficacy of (R)-7-chloro-N-(quinuclidin-3-yl)benzo[b]thiophene-2-carboxamide HCl salt was assessed in a Phase 1b study of 48 mild to moderate AD patients 60-80 years of age, on stable donepezil (5 or 10 mg/day) or rivastigmine (6-12 mg/day administered as a twice daily dose, i.e., 3 or 6 mg per dose).
Patients were dosed with placebo or two different doses of (R)-7-chloro-N-(quinuclidin-3-yl)benzo[b]thiophene-2-carboxamide (0.3 or 1.0 mg/d) for 28 days. Safety was evaluated by adverse events, ECG, and clinical laboratory measures. Cognitive effects were measured by CogState computerized cognitive testing and a subset of NTB scales (category fluency, Trails A and B).

Compound	effect on object memory deficit induced by scopolamine ([1]; 0.03 mg/kg p.o.)	effect on object memory deficit induced by scopolamine ([1]; 0.3 mg/kg p.o.)	d2 difference from zero (one-sample t-tests) [2]	effect on scopolamine-induced object memory dysfunction (comparison with scopolamine alone) [2]	Mean values (±SEM) of the indices of discrimination (d2) between the new and familiar objects [2]	cognitive function [3]	effect on scopolamine-induced object memory deficit ([1]; 0.1 mg/kg donepezil)	effect on scopolamine-induced object memory deficit ([1]; 0.3 mg/kg donepezil p.o.)	memory of the familiar object after 1 h delay interval ([2]; scopolamine 0.1 mg/kg i.p. alone)
O=C(N[C@H]1CN2CCC1CC2)c1cc2cccc(Cl)c2s1 [EVP-6124, (R)-7-chloro-N-(quinuclidin-3-yl)benzo[b]thiophene-2-carboxamide]	had no effect	completely attenuated	not different from zero	did not improve the memory	0.00 (0.05)	showed an increase in cognitive function			
COc1cc2c(cc1OC)C(=O)C(CC1CCN(Cc3ccccc3)CC1)C2 (centres unmarked) [donepezil, 1-benyzl-4-[(5,6-dimethoxy-1-indanon)-2-yl]methylpiperidine monohydrochloride]			not different from zero	did not improve the memory	−0.02 (0.05)		had no effect	attenuated	
CN1[C@@H]2C[C@@H](OC(=O)[C@H](CO)c3ccccc3)C[C@H]1[C@@H]1O[C@@H]12 [scopolamine]			no difference		0.02 (0.07)				no more memory of the familiar object was found

— patent US20150126546A1, “Treatment of Cognitive Disorders with Certain Alpha-7 Nicotinic Acid Receptors in Combination with Acetylcholinesterase Inhibitors” (Forum Pharmaceuticals, Inc., priority 2009, published 2015)
